Assay results as given in patent US20180346505A1, “MONONUCLEOTIDES HAVING A BIOREVERSIBLE DISULFIDE GROUP” (priority 2014, published 2018).

Legend:
GT1a (H77) HCV replicon = experiment: HCV replicon assay, wild type GT1a (H77), luciferase based, stable format; type: cell-based, hepatitis C virus; settings: Hepatitis C virus, GT1A, Huh-7, 72 h, Huh-7 cells
Experimental: (§1) The antiviral activity of the test compounds was assessed in the wild type GT1b (Con1), GT1a (H77), and GT1b/2a, GT1b/3a, GT1b/4a and GT1b/5a NS5B chimeric replicons, as well as the NS5B mutant replicons listed in Table 2a and 2b.
(§2) All the replicon assays were luciferase based in Huh-7 cells, either in stable format (GT1b and GT1a) or by transient transfection by electroporation (chimeric and mutant replicons). For a standard HCV replicon assay, stable or transiently transfected Huh-7 cells were seeded in 96-well plates (5,000 cells/well), cultured in DMEM containing 10% FBS, and incubated at 37° C., 5% CO2. On the following day, test compounds were diluted with assay media and added to the appropriate wells (final DMSO concentration in the cell culture medium was 0.5%). Assay reference positive control was included in each run to ensure assay performance. Cells were incubated at 37° C., 5% CO2 for 72 hours, at which time the cells were still sub-confluent. The antiviral activity was determined by measuring replicon reporter firefly luciferase activity using Bright Glo kit in accordance with the protocol provided by the supplier (Promega). The toxicity of the test compounds was assessed by CytoTox-1 cell proliferation assay (Promega). The half maximal effective concentration (EC50) and the half maximal toxic concentration (TC50) values were calculated using the GraphPad Prism software.

GT1b (Con1) HCV replicon = experiment: HCV replicon assay, wild type GT1b (Con1), luciferase based, stable format; type: cell-based, hepatitis C virus; settings: Huh-7 cells
Experimental: as §1, §2

[1] = system: GT1a S282T NS5B mutant replicon; experiment: HCV NS5B mutant replicon assay, GT1a S282T; type: cell-based; settings: Hepatitis C virus, Huh-7, 72 h, read-out: GT1a S282T EC50
Experimental: as §1
(§3) The HCV replicon mutants were generated by site-directed mutagenesis (SDM). The SDM was performed by PCR and the PCR fragments were inserted into the backbone replicon construct. The inserted PCR fragments and the mutants were confirmed by sequencing.
as §2

[2] = system: GT1a L159F NS5B mutant replicon; experiment: HCV NS5B mutant replicon assay, GT1a L159F; type: cell-based; settings: Hepatitis C virus, Huh-7, 72 h, read-out: GT1a L159F EC50
Experimental: as §1, §3, §2

[3] = system: GT1b S96T NS5B mutant replicon; experiment: HCV NS5B mutant replicon assay, GT1b S96T; type: cell-based; settings: Hepatitis C virus, Huh-7, 72 h, read-out: GT1b S96T EC50
Experimental: as §1, §3, §2

[4] = system: GT1b L159F NS5B mutant replicon; experiment: HCV NS5B mutant replicon assay, GT1b L159F; type: cell-based; settings: Hepatitis C virus, Huh-7, 72 h, read-out: GT1b L159F EC50
Experimental: as §1, §3, §2

[5] = system: GT1b C316N NS5B mutant replicon; experiment: HCV NS5B mutant replicon assay, GT1b C316N; type: cell-based; settings: Hepatitis C virus, Huh-7, 72 h, read-out: GT1b C316N EC50
Experimental: as §1, §3, §2

[6] = system: GT3a L159F NS5B mutant replicon; experiment: HCV NS5B mutant replicon assay, GT3a L159F; type: cell-based; settings: Hepatitis C virus, Huh-7, 72 h, read-out: GT3a L159F EC50
Experimental: as §1
(§4) To generate HCV NS5B chimeric replicons, the GT1 b replicon was used as a backbone with the NS5B gene replaced with the NS5B gene of GT2a, GT3a, GT4a and GT5a derived from clinical isolates. These NS5B genes were cloned into the GT1b backbone and were confirmed by sequencing.
as §3, §2

[7] = system: GT3a V321A NS5B mutant replicon; experiment: HCV NS5B mutant replicon assay, GT3a V321A; type: cell-based; settings: Hepatitis C virus, Huh-7, 72 h, read-out: GT3a V321A EC50
Experimental: as §1, §4, §3, §2

[8] = Nucleoside phosphoester stability in fetal bovine serum; type: in vitro ADME; settings: 100 μM, 37° C.
Experimental: In another test, mononucleotide stock solutions were prepared at 10 mM in DMSO, and 10 μL of each stock solution was added to 1 mL of fetal bovine serum (FBS) to provide 100 μM of final compound concentration. These samples incubated for 24 h in a 37° C. water bath and 100 μL aliquots removed at t=0, 1, 2, 4, 6 and 24 hours. Individual samples were precipitated with 200 μL cold acetonitrile, the debris was pelleted at 14K RPM for 30 min at 4° C., and the supernatant was removed and subjected to LCMS analysis as described below.
Mobile phase A: 95:5 H2O:acetonitrile, 10 mM ammonium acetate, 0.01% formic acid
Mobile phase B: 95:5 acetonitrile:H2O, 10 mM ammonium acetate, 0.01% formic acid
Extracted ion chromatograms generated using M+1H and ammonium adduct for each compound.

[9] = Nucleoside phosphoester stability in simulated gastric fluid; type: in vitro ADME; settings: simulated gastric fluid pH 1.2, 2 μM, 37° C.
Experimental: Test compounds at 2 μM were incubated at 37° C. with simulated gastric fluid (SGF, 0.2% (w/v) sodium chloride in 0.7% (v/v) hydrochloric acid, deionized water, 0.3% pepsin (w/v), pH 1.2). Duplicate samples were used. Samples were removed at 0, 15, 30, 60, 120, 360 and 1440 min, immediately mixed with cold acetonitrile containing internal standard (IS), and stored at −80° C. before analysis. Omeprazole was used as a positive control. Samples were analyzed by LC/MS/MS method, and disappearance of test compound was assessed by comparison of peak area ratios of analyte/IS and reported as % test compound remaining at each time point.

[10] = Nucleoside phosphoester stability in simulated intestinal fluid; type: in vitro ADME
Experimental: Test compounds at 2 μM were incubated at 37° C. with simulated intestinal fluid (SIF), which contains 0.68% (w/v) monobasic potassium phosphate and 1% (w/v) pancreatin in ultra-pure water (pH 6.8). Duplicate samples were used. Samples were removed at 0, 15, 30, 60, 120, 360 and 1440 min, immediately mixed with cold acetonitrile containing an internal standard (IS), and stored at −80° C. before analysis. Chlorambucil was used as a positive control. Samples were analyzed by a LC/MS/MS method, and disappearance of test compound was assessed by comparison of peak area ratios of analyte/IS and reported as % test compound remaining at each time point.

[11] = Hepatitis C virus, GT1B, Huh-7, 72 h

SMILES	EC50 (GT1a (H77) HCV replicon)	EC50 (GT1b (Con1) HCV replicon; [11])	EC50 [1]	EC50 [2]	EC50 [3]	EC50 [4]	EC50 [5]	EC50 [6]	EC50 [7]	% t = 0 ([8]; 0 hours)	% t = 0 ([8]; 1 hour)	% t = 0 ([8]; 2 hours)	% t = 0 ([8]; 4 hours)	% t = 0 ([8]; 6 hours)	% t = 0 ([8]; 24 hours)	% Remaining ([9]; 0 min)	% Remaining ([9]; 15 min)	% Remaining ([9]; 30 min)	% Remaining ([9]; 60 min)	% Remaining ([9]; 120 min)	also measured
CC(C)(C)SSc1ccccc1CCOP1(=O)OC[C@H]2O[C@@H](n3ccc(=O)[nH]c3=O)[C@](C)(F)[C@@H]2O1 (single isomer, unassigned) [Compound 7A]	5 to 8 nM	9 nM	60 nM	11 nM	8 nM	15 to 17 nM	9 nM	15 nM	12 nM	100.0%	101.0%	101.0%	100.9%	92.5%	87.9%	100.00%	95.13%	99.01%	92.49%	91.52%	EC50 (GT1b (Con1) HCV replicon; 72 hours): 5 to 8 nM; % Remaining ([9]; 360 min): 91.60%; % Remaining ([9]; 1440 min): 70.36%; % Remaining ([10]; simulated gi fluid, 0 h, 2 μM, pH 6.8): 100.00%; % Remaining ([10]; simulated gi fluid, 0.25 h, 2 μM, pH 6.8): 102.65%; % Remaining ([10]; simulated gi fluid, 0.5 h, 2 μM, pH 6.8): 104.34%; % Remaining ([10]; simulated gi fluid, 1 h, 2 μM, pH 6.8): 111.04%; % Remaining ([10]; simulated gi fluid, 2 h, 2 μM, pH 6.8): 101.89%; % Remaining ([10]; simulated gi fluid, 6 h, 2 μM, pH 6.8): 121.95%; % Remaining ([10]; simulated gi fluid, 24 h, 2 μM, pH 6.8): 51.70%
CC(C)OC(=O)[C@H](C)N[P@](=O)(OC[C@H]1O[C@@H](n2ccc(=O)[nH]c2=O)[C@](C)(F)[C@@H]1O)Oc1ccccc1 [sofosbuvir, reference compound]	40 to 61 nM	36 to 66 nM	194 to 694 nM	80 nM	62 to 314 nM	63 nM	25 nM	134 nM	166 nM	100.0%	96.2%	96.5%	89.0%	91.6%	102.2%	100.00%	93.47%	99.50%	99.63%	95.33%	% Remaining ([9]; 360 min): 87.35%; % Remaining ([9]; 1440 min): 61.36%; % Remaining ([10]; simulated intestinal fluid pH 6.8, 2 μM, 37° C., 0 min): 100.00%; % Remaining ([10]; simulated intestinal fluid pH 6.8, 2 μM, 37° C., 15 min): 5.57%; % Remaining ([10]; simulated intestinal fluid pH 6.8, 2 μM, 37° C., 30 min): 0.00%; % Remaining ([10]; simulated intestinal fluid pH 6.8, 2 μM, 37° C., 60 min): 0.00%; % Remaining ([10]; simulated intestinal fluid pH 6.8, 2 μM, 37° C., 120 min): 0.00%; % Remaining ([10]; simulated intestinal fluid pH 6.8, 2 μM, 37° C., 360 min): 0.00%; % Remaining ([10]; simulated intestinal fluid pH 6.8, 2 μM, 37° C., 1440 min): 0.00%
